Patent US20250011878A1, “METHOD TO DETECT RNA BIOMARKERS” (ITALFARMACO SPA, priority 2021, published 2025)
Where two headings read alike, the source gives them in different places.

Key:
[1] = dog, in vivo, 1000 mg/kg
[2] = test system: CT26 tumor cells; test: CT26 tumor volume in BALB/c mice, responders and non-responders; format: in vivo; conditions: CT26 s.c. in BALB/c mice, treatment day 10 to day 20; three groups of animals with different tumor reduction
Experimental: (§1) Adult BALB/c mice were injected s.c. with 1×10^6 CT26 tumor cells (diluted to 100 μl with phosphate buffered saline) and treated with anti-PD1 or ITF3756 when the tumor volume reached 75-100 mm^3, to explore the modulation of genes in the tumor microenvironment by RNAseq. Since ITF3756 acts on the PD-1/PD-L1 axis, this approach allows the identification of genes specific and common to both treatments. The overall schedule is described in Table 9.
Responders and non-responders were selected based on tumor volume at day 20. The volume of the tumor at the beginning of the treatments (day 10) was on average about 75 mm^3. Based on this value of tumor volume, we classified the animals according to the following criteria: • Animals with tumor volume lower or equal to 75 mm^3 were considered RESPONDERS (R) • Animals with tumor volume greater than 75 mm^3 were considered NON RESPONDERS (NR)

[3] = test system: PD-L1; test: PD-L1 surface expression on human monocytes stimulated with TNF-α; format: cell-based
[4] = biological target: T1, HDAC6 (Mus musculus, UniProt Q9Z2V5); test: Target engagement: tubulin acetylation in spleen of CT26 tumor bearing mice (western blot); format: in vivo, BALB/c mice; conditions: 50 mpk os, 8 administrations (Table 9)
T1 construct: Spleens were collected and total splenocytes suspension was prepared; from tissue; host or cells: spleen (splenocytes) of BALB/c mice bearing CT26 tumors
T1 sequence (Q9Z2V5 1-1149): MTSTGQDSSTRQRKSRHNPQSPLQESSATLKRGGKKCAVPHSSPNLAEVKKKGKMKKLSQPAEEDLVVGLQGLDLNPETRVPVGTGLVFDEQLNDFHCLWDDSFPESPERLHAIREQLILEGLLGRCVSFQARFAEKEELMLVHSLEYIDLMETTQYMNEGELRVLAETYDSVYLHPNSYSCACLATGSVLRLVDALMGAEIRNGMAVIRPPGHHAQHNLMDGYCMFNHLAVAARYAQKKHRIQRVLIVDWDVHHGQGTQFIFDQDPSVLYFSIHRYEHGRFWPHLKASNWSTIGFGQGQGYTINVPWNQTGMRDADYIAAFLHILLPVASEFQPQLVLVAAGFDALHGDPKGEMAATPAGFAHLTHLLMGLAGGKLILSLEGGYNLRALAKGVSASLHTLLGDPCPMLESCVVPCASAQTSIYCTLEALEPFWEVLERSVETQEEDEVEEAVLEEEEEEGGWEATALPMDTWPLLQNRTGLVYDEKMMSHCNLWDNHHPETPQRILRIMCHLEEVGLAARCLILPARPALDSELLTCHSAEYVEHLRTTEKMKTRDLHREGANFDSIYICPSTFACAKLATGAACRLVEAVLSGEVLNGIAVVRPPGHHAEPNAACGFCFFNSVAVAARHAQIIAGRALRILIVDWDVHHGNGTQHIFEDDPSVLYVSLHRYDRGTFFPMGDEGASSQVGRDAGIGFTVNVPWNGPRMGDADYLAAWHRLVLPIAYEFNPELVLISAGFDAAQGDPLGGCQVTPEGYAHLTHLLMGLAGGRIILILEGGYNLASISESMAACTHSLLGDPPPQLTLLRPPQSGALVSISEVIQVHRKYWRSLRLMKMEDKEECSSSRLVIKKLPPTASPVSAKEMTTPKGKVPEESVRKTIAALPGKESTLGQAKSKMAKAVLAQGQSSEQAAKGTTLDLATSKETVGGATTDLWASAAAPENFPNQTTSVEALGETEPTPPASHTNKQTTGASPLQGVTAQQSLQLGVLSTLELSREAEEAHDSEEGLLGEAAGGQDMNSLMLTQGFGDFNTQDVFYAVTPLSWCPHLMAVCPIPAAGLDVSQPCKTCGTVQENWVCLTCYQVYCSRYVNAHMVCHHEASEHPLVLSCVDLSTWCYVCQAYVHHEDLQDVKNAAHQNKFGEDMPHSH
Experimental: as §1
Whole cell extracts were obtained by lysing mice spleens with Triton Buffer (50Mm Tris-HCl ph 7.5, 250 mM NaCl, 50 mM NaF, 1 mM EDTA pH 8, 0.1% Triton), supplemented with protease and phosphatase inhibitors (Roche, Germany). Proteins were separated by SDS-PAGE, transferred onto PVDF membranes and blocked with PBS-T (Phosphate-buffared saline and 0.1% Tween-20 containing 5% non-fat dry milk for one hour at room temperature (RT). The incubation with primary antibodies was performed for two hours at RT, followed by incubation with the appropriate horseradish peroxidase-conjugated secondary antibody. Detection was performed with ECL Western Blot Reagent (Amerscham). The antibodies used were: mouse anti acetylated tubulin (Sigma, T6793), mouse anti tubulin (Sigma, T6074), goat anti-mouse IgG (H+L)-HRP conjugate (Bio-Rad, 1706516).
Densitometry analysis was performed using ImageJ software. […]
To ascertain HDAC6 inhibition by ITF3756, the spleen of the animals were collected at all sacrifice time points (1 hour, 4 hours, 18 hours and 24 hours). Tubulin acetylation and total tubulin were detected by western blotting.
Tumor bearing animals were sacrificed at various time points after the last administration. Spleens were collected and total splenocytes suspension was prepared. Pelleted cells were lysed to obtain a total protein extract […] by electrophoresis. Tubulin and acetyl-tubulin were detected after western blotting using specific antibodies.

[5] = mouse, in vivo, 1000 mg/kg

Structure (SMILES): O=C(NO)c1ccc(Cn2nnnc2-c2cccs2)cc1 [ITF3756, N-hydroxy-4-((5-(thiophen-2-yl)-1 H-tetrazol-1-yl)methyl)benzamide]
- tolerability [1]: well tolerated
- tumor response (tumor volume) [2]: heterogeneous response
- surface expression of PD-L1 (upregulation by TNF-α) [3]: inhibited
- tubulin acetylation in spleen ([4]; 1 hour after the last treatment): strong increase
- tubulin acetylation in spleen ([4]; 4 hours after the last treatment): maintained until 4 hours
- tubulin acetylation in spleen ([4]; 18 hours after the last treatment): still high and consistent
- tubulin acetylation in spleen ([4]; 24 hours after the last treatment): still detectable, but not in all the animals analysed
- tolerability [5]: well tolerated
